{"source": "patent US20220281848A1", "about": "“PYRAZOLE-SUBSTITUTED PYRROLIDINONES AS HERBICIDES” (FMC Corporation, priority 2019, published 2022)", "test_system": "plants", "assay": "Test D pre-emergence, other plants of Tables D1 and D3", "assay_type": "in vivo", "conditions": "preemergent, 20 DAA", "description": "A formulation containing 50 g/L of the test chemical was prepared by dissolving the active ingredient in a mixture of organic solvents and emulsifier, details of which are provided in the table. This formulation was then mixed with a small, variable amount of acetone to aid dissolution, before addition of a 0.2% v/v aqueous solution of an adjuvant, as the aqueous diluent, to form an aqueous spray solution which contains a predetermined concentration of the active ingredient.\nThis aqueous spray solution was then sprayed onto plants including maize and wheat that had been seed treated with a herbicide safener, after one day's cultivation (for pre-emergence) or after about 12 days' cultivation (for post-emergence). The plants were grown from seeds sown in standard soil, placed in a glasshouse under controlled conditions (at 24/18° C. or 20/16° C., day/night; 16 h light; 65% humidity). After spray application the plants were then grown in a glasshouse under the same conditions and watered twice daily. After 15 d for post-emergence and 20 DAA for pre-emergence the test was evaluated (100=total damage to plant; 0=no damage to plant).", "data": [{"smiles": "CN1CC(c2cc(C(F)(F)F)n(C)n2)C(C(=O)Nc2ccc(F)c(F)c2F)C1=O", "note": "(racemic) [Compound 17]", "values": [{"measurement": "damage to plant (100=total damage to plant; 0=no damage to plant), ABUTH", "setting": "rate 15", "result": 0}, {"measurement": "damage to plant (100=total damage to plant; 0=no damage to plant), ABUTH", "setting": "rate 30", "result": 0}, {"measurement": "damage to plant (100=total damage to plant; 0=no damage to plant), ABUTH", "setting": "rate 60", "result": 0}, {"measurement": "damage to plant (100=total damage to plant; 0=no damage to plant), ABUTH", "setting": "rate 130", "result": 0}, {"measurement": "damage to plant (100=total damage to plant; 0=no damage to plant), ABUTH", "setting": "rate 250", "result": 0}, {"measurement": "damage to plant (100=total damage to plant; 0=no damage to plant), ABUTH", "setting": "rate 500", "result": 10}, {"measurement": "damage to plant (100=total damage to plant; 0=no damage to plant), AMARE", "setting": "rate 15", "result": 0}, {"measurement": "damage to plant (100=total damage to plant; 0=no damage to plant), AMARE", "setting": "rate 30", "result": 0}, {"measurement": "damage to plant (100=total damage to plant; 0=no damage to plant), AMARE", "setting": "rate 60", "result": 0}, {"measurement": "damage to plant (100=total damage to plant; 0=no damage to plant), AMARE", "setting": "rate 130", "result": 0}, {"measurement": "damage to plant (100=total damage to plant; 0=no damage to plant), AMARE", "setting": "rate 250", "result": 0}, {"measurement": "damage to plant (100=total damage to plant; 0=no damage to plant), AMARE", "setting": "rate 500", "result": 0}, {"measurement": "damage to plant (100=total damage to plant; 0=no damage to plant), BIDPI", "setting": "rate 15", "result": 0}, {"measurement": "damage to plant (100=total damage to plant; 0=no damage to plant), BIDPI", "setting": "rate 30", "result": 0}, {"measurement": "damage to plant (100=total damage to plant; 0=no damage to plant), BIDPI", "setting": "rate 60", "result": 0}, {"measurement": "damage to plant (100=total damage to plant; 0=no damage to plant), BIDPI", "setting": "rate 130", "result": 0}, {"measurement": "damage to plant (100=total damage to plant; 0=no damage to plant), BIDPI", "setting": "rate 250", "result": 0}, {"measurement": "damage to plant (100=total damage to plant; 0=no damage to plant), BIDPI", "setting": "rate 500", "result": 0}, {"measurement": "damage to plant (100=total damage to plant; 0=no damage to plant), BRAPL", "setting": "rate 15", "result": 20}, {"measurement": "damage to plant (100=total damage to plant; 0=no damage to plant), BRAPL", "setting": "rate 30", "result": 60}, {"measurement": "damage to plant (100=total damage to plant; 0=no damage to plant), BRAPL", "setting": "rate 60", "result": 80}, {"measurement": "damage to plant (100=total damage to plant; 0=no damage to plant), BRAPL", "setting": "rate 130", "result": 80}, {"measurement": "damage to plant (100=total damage to plant; 0=no damage to plant), BRAPL", "setting": "rate 250", "result": 80}, {"measurement": "damage to plant (100=total damage to plant; 0=no damage to plant), BRAPL", "setting": "rate 500", "result": 90}, {"measurement": "damage to plant (100=total damage to plant; 0=no damage to plant), CYPES", "setting": "rate 15", "result": 0}, {"measurement": "damage to plant (100=total damage to plant; 0=no damage to plant), CYPES", "setting": "rate 30", "result": 0}, {"measurement": "damage to plant (100=total damage to plant; 0=no damage to plant), CYPES", "setting": "rate 60", "result": 0}, {"measurement": "damage to plant (100=total damage to plant; 0=no damage to plant), CYPES", "setting": "rate 130", "result": 0}, {"measurement": "damage to plant (100=total damage to plant; 0=no damage to plant), CYPES", "setting": "rate 250", "result": 0}, {"measurement": "damage to plant (100=total damage to plant; 0=no damage to plant), CYPES", "setting": "rate 500", "result": 0}, {"measurement": "damage to plant (100=total damage to plant; 0=no damage to plant), DIGSA", "setting": "rate 15", "result": 30}, {"measurement": "damage to plant (100=total damage to plant; 0=no damage to plant), DIGSA", "setting": "rate 30", "result": 90}, {"measurement": "damage to plant (100=total damage to plant; 0=no damage to plant), DIGSA", "setting": "rate 60", "result": 90}, {"measurement": "damage to plant (100=total damage to plant; 0=no damage to plant), DIGSA", "setting": "rate 130", "result": 90}, {"measurement": "damage to plant (100=total damage to plant; 0=no damage to plant), DIGSA", "setting": "rate 250", "result": 90}, {"measurement": "damage to plant (100=total damage to plant; 0=no damage to plant), DIGSA", "setting": "rate 500", "result": 90}, {"measurement": "damage to plant (100=total damage to plant; 0=no damage to plant), ECHCG", "setting": "rate 15", "result": 0}, {"measurement": "damage to plant (100=total damage to plant; 0=no damage to plant), ECHCG", "setting": "rate 30", "result": 90}, {"measurement": "damage to plant (100=total damage to plant; 0=no damage to plant), ECHCG", "setting": "rate 60", "result": 90}, {"measurement": "damage to plant (100=total damage to plant; 0=no damage to plant), ECHCG", "setting": "rate 130", "result": 90}, {"measurement": "damage to plant (100=total damage to plant; 0=no damage to plant), ECHCG", "setting": "rate 250", "result": 100}, {"measurement": "damage to plant (100=total damage to plant; 0=no damage to plant), ECHCG", "setting": "rate 500", "result": 100}, {"measurement": "damage to plant (100=total damage to plant; 0=no damage to plant), ELEIN", "setting": "rate 15", "result": 0}, {"measurement": "damage to plant (100=total damage to plant; 0=no damage to plant), ELEIN", "setting": "rate 30", "result": 0}, {"measurement": "damage to plant (100=total damage to plant; 0=no damage to plant), ELEIN", "setting": "rate 60", "result": 0}, {"measurement": "damage to plant (100=total damage to plant; 0=no damage to plant), ELEIN", "setting": "rate 130", "result": 0}, {"measurement": "damage to plant (100=total damage to plant; 0=no damage to plant), ELEIN", "setting": "rate 250", "result": 0}, {"measurement": "damage to plant (100=total damage to plant; 0=no damage to plant), ELEIN", "setting": "rate 500", "result": 0}, {"measurement": "damage to plant (100=total damage to plant; 0=no damage to plant), EPHHL", "setting": "rate 15", "result": 0}, {"measurement": "damage to plant (100=total damage to plant; 0=no damage to plant), EPHHL", "setting": "rate 30", "result": 0}, {"measurement": "damage to plant (100=total damage to plant; 0=no damage to plant), EPHHL", "setting": "rate 60", "result": 0}, {"measurement": "damage to plant (100=total damage to plant; 0=no damage to plant), EPHHL", "setting": "rate 130", "result": 0}, {"measurement": "damage to plant (100=total damage to plant; 0=no damage to plant), EPHHL", "setting": "rate 250", "result": 0}, {"measurement": "damage to plant (100=total damage to plant; 0=no damage to plant), EPHHL", "setting": "rate 500", "result": 10}, {"measurement": "damage to plant (100=total damage to plant; 0=no damage to plant), GLXMA", "setting": "rate 15", "result": 0}, {"measurement": "damage to plant (100=total damage to plant; 0=no damage to plant), GLXMA", "setting": "rate 30", "result": 0}, {"measurement": "damage to plant (100=total damage to plant; 0=no damage to plant), GLXMA", "setting": "rate 60", "result": 0}, {"measurement": "damage to plant (100=total damage to plant; 0=no damage to plant), GLXMA", "setting": "rate 130", "result": 0}, {"measurement": "damage to plant (100=total damage to plant; 0=no damage to plant), GLXMA", "setting": "rate 250", "result": 0}, {"measurement": "damage to plant (100=total damage to plant; 0=no damage to plant), GLXMA", "setting": "rate 500", "result": 0}, {"measurement": "damage to plant (100=total damage to plant; 0=no damage to plant), IPOHE", "setting": "rate 15", "result": 0}, {"measurement": "damage to plant (100=total damage to plant; 0=no damage to plant), IPOHE", "setting": "rate 30", "result": 0}, {"measurement": "damage to plant (100=total damage to plant; 0=no damage to plant), IPOHE", "setting": "rate 60", "result": 0}, {"measurement": "damage to plant (100=total damage to plant; 0=no damage to plant), IPOHE", "setting": "rate 130", "result": 0}, {"measurement": "damage to plant (100=total damage to plant; 0=no damage to plant), IPOHE", "setting": "rate 250", "result": 0}, {"measurement": "damage to plant (100=total damage to plant; 0=no damage to plant), IPOHE", "setting": "rate 500", "result": 0}, {"measurement": "damage to plant (100=total damage to plant; 0=no damage to plant), ORYSA", "setting": "rate 15", "result": 0}, {"measurement": "damage to plant (100=total damage to plant; 0=no damage to plant), ORYSA", "setting": "rate 30", "result": 0}, {"measurement": "damage to plant (100=total damage to plant; 0=no damage to plant), ORYSA", "setting": "rate 60", "result": 0}, {"measurement": "damage to plant (100=total damage to plant; 0=no damage to plant), ORYSA", "setting": "rate 130", "result": 0}, {"measurement": "damage to plant (100=total damage to plant; 0=no damage to plant), ORYSA", "setting": "rate 250", "result": 0}, {"measurement": "damage to plant (100=total damage to plant; 0=no damage to plant), ORYSA", "setting": "rate 500", "result": 0}, {"measurement": "damage to plant (100=total damage to plant; 0=no damage to plant), PANMI", "setting": "rate 15", "result": 0}, {"measurement": "damage to plant (100=total damage to plant; 0=no damage to plant), PANMI", "setting": "rate 30", "result": 0}, {"measurement": "damage to plant (100=total damage to plant; 0=no damage to plant), PANMI", "setting": "rate 60", "result": 0}, {"measurement": "damage to plant (100=total damage to plant; 0=no damage to plant), PANMI", "setting": "rate 130", "result": 0}, {"measurement": "damage to plant (100=total damage to plant; 0=no damage to plant), PANMI", "setting": "rate 250", "result": 0}, {"measurement": "damage to plant (100=total damage to plant; 0=no damage to plant), PANMI", "setting": "rate 500", "result": 0}, {"measurement": "damage to plant (100=total damage to plant; 0=no damage to plant), SETFA", "setting": "rate 15", "result": 0}, {"measurement": "damage to plant (100=total damage to plant; 0=no damage to plant), SETFA", "setting": "rate 30", "result": 80}, {"measurement": "damage to plant (100=total damage to plant; 0=no damage to plant), SETFA", "setting": "rate 60", "result": 90}, {"measurement": "damage to plant (100=total damage to plant; 0=no damage to plant), SETFA", "setting": "rate 130", "result": 90}, {"measurement": "damage to plant (100=total damage to plant; 0=no damage to plant), SETFA", "setting": "rate 250", "result": 90}, {"measurement": "damage to plant (100=total damage to plant; 0=no damage to plant), SETFA", "setting": "rate 500", "result": 90}, {"measurement": "damage to plant (100=total damage to plant; 0=no damage to plant), SORVU", "setting": "rate 15", "result": 0}, {"measurement": "damage to plant (100=total damage to plant; 0=no damage to plant), SORVU", "setting": "rate 30", "result": 0}, {"measurement": "damage to plant (100=total damage to plant; 0=no damage to plant), SORVU", "setting": "rate 60", "result": 0}, {"measurement": "damage to plant (100=total damage to plant; 0=no damage to plant), SORVU", "setting": "rate 130", "result": 0}, {"measurement": "damage to plant (100=total damage to plant; 0=no damage to plant), SORVU", "setting": "rate 250", "result": 0}]}]}
